Literature values, collected in US8309122B2 (Endo Pharmaceuticals Inc., priority 2001, dated 2012).

Conditions: metabolized principally in the liver

In the case of CN1CC[C@]23c4c5ccc(O)c4O[C@H]2C(=O)CC[C@@]3(O)[C@H]1C5.Cl [Oxymorphone, 14-hydroxydihydromorphinone hydrochloride], the oral bioavailability is given as “about 10%”.
